Laboratory results reported in patent US7091238B1, “Thienylhydrazon with digitalis-like properties (positive inotropic effects)” (University of Maryland, priority 1999, dated 2006).
Entries after “also recorded” stand apart in the source; their conditions may differ.

Columns and labels:
isolated rat heart = assay: Electrocardiogram of isolated heart (modified Langendorff perfusion); details: isolated rat heart without pre-load; 10, 50, 100 μM
Experimental: FIG. 4. Hearts of adult rats were quickly removed and placed in an aorta retrograde perfusion system (modified Langendorrff) for measurement of electrocardiogram (ECG).
a Recordings of electrocardiogram (ECG) of isolated rat heart are shown in FIG. 4 which compare control, LASSBio-294 treatment, 10 uM, 50 μM and 100 μM and post-treatment wash. […] FIG. 5 illustrates a test of change in isometric tension induced by LASSBio-294 in isolated hearts under preload. Concentration of LASSBio-294 in the bathing solution is 50 μM, which is half of the highest concentration tested in the ECG tests described in FIG. 4. Hearts were treated under a pre-load of 1 g; control was compared to LASSBio-294 and wash. […] This effect was lost in the wash out period. The pre-load tension test is considered to be an animal model of congestive heart disease. Comparing the effect of drugs with this test is predictive of therapeutic effect of treatment in human congestive heart disease. General Method
Hearts were quickly removed and placed in an aorta retrograde perfusion system for measurement of ECG. Increasing concentrations of LASSBio-294 were added to the bathing solution. The system equilibrated for 5 min. before measurement of isometric tension after each addition.

[1] = tested on: Ca^2+-ATPase extracted from heart muscle or gastrocnemius muscle; assay: Effect on Ca2+-ATPase; type: biochemical; details: enzyme from rat heart or gastrocnemius muscle
Excerpt: Determination of phosphodiesterase direct effect was also negative.

rat cardiac muscle = assay: Isometric tension of papillary, atrial and ventricular bundles of cardiac muscle
Experimental: (§1) FIG. 2. The papillary muscle, and bundles of atrial and ventricular cells obtained from rat hearts were dissected and set in an aerated chamber to enable recording of isometric tension. LASSBio-294 was added to the chamber in a cumulative manner, first 10 μM and increasing to 50 μM and recordings made after allowing 5 min. for equilibration.
FIG. 3. LASSBio-294 was added to the physiologic solution at increasing concentrations. The isometric tension was expressed as a percent of control, as measured prior to addition of test solution. N=9 for each concentration.
a. The test shown in FIG. 2 measured the effect of LASSBio-294 on the isometric tension of papillary, atrial, and ventricular bundles of rat cardiac muscle. Chart traces are of muscle tension for each muscle group. […] FIG. 3 contains a graphic representation of the effect of LASSBio-294 on isometric tension of papillary, atrial, and ventricular bundles of rat cardiac muscle. LASSBio-294 at concentrations of 0 μM, 25 μM, 50 μM, 100 μM, 200 μM, and 500 μM was used. Isometric tension is expressed as a percent of control that was measured prior to addition of the test solution. […] General Method
as §1, with “The” for “FIG. 2. The”, “aerated verticle” for “aerated”, “manner. Recordings” for “manner, first 10 μM and increasing to 50 μM and recordings”

rat thoracic aorta = assay: Relaxation of noradrenaline-precontracted thoracic aortic rings
Excerpt: Aortic rings: Male wistar rats (300–350 g) were anaesthetized with ether and killed by cervical dislocation. The thoracic aorta was quickly removed, placed in physiological solution, cleaned of fat and connective tissue, and cut into 3-mm rings. In some experiments endothelium was mechanically removed by gently rubbing inverted rings on a cotton surface moistened with physiological solution. The rings were fixed in an organ bath chamber filled with physiological solution (composition (mM): NaCl 122, KCl 5, NaHCO3 15, glucose 11.5, MgCl2 1.25, CaCl2 1.25 and KH2PO4 1.25) aerated with O2/CO2, maintained at 37° C., and left to equilibrate for 60 min during which the physiological solution was changed twice. All experiments were carried out under an initial tension of 20 mN, and the developed active tension was measured isometrically using a Grass Transducer (FT03). Data were acquired and analyzed by Chart 3.4/s software (MacLab, USA). The contraction was induced by 1 μM Noradrenaline (NOR) and when it reached a plateau the relaxant drugs (or solvent—time-matched control) were added. The rings contracted with 1 μM NOR that relaxed 40–50% in response to 1 μM acetylcholine were considered with intact endothelium. Drugs: LASSBio-294 and ODQ were dissolved in 100% dimethyl sulphoxide (DMSO). Noradrenalin, 1-NAME, IBMX, methylene blue, acetylcholine and indomethacin were purchased from SIGMA (USA). All drugs but indomethacin were dissolved in water in the day of the experiment. Indomethacin was dissolved in 5% sodium carbonate. Statistics: Data are presented as mean ±sem. Statistical analysis was performed using the Primer software. Vasodilator responses are expressed in percentage of the maximal contraction induced by 1 μM NOR. Differences were considered significant at p<0.05 (Student's t test).

LD 50 in dogs = type: in vivo; details: dog, in vivo
Experimental: (§2) LASSBio-294 has very low toxic effects. This was tested in whole mouse, rat, and dog models (Greaves, P. (1998) Exp. Toxicol. Pathol. 50, 283). These models are commonly used to predict toxicity in humans (Chou, W. L., Robbie G., Chung, S. M., Wu, T. C., and Ma, C. (1998) Pharm. Res. 15, 1474). […] These tests predict LASSBio-294 can be dosed in humans to achieve therapeutic plasma levels without significant risk of toxicity.

dogs = assay: LD 50 in dogs; type: in vivo; details: dogs
Experimental: as §2

blood cells = assay: Blood cell analysis in treated mice; type: in vivo; details: 2 or 10 mg/kg
Experimental: (§3) b. Rats were weighed before and after treatment with LASSBio 204. […] Six rats were examined in each group, measurements were made after 1–15 days of treatment. […] Mice were injected with LASSBio-294 and their blood examined for cell changes. Experimental groups received 2 or 10 mg/kg of drug. […] Table 4 lists blood chemistry analysis of mice treated with LASSBio-294. Experimental groups received 2 or 10 mg/kg of drug. Controls were saline and solvent. […] The low values of glucose found could be due to an artifact of the technique, glucose being a byproduct of hemolysis. […] General Method

[2] = Blood biochemistry analysis in treated mice; type: in vivo
Experimental: as §3

Structure (SMILES): O=C(NN=Cc1cccs1)c1ccc2c(c1)OCO2 [LASSBio-294, 3,4-methylenedioxybenzoyl-2-thienylhydrazone]
- effect on ECG (isolated rat heart): No treatment had any effect on ECG; also recorded: no change
- effect on Ca^2+-ATPase [1]: did not affect
- isometric tension as percent of control vs concentration (rat cardiac muscle; 0, 25, 50, 100, 200, 500 μM, nine tests per concentration): increased for each concentration up to 200 μM
- isometric tension (rat cardiac muscle; papillary, atrial, ventricular bundles, 10 μM and 50 μM cumulative): increase in tension
- increased tension over control (rat cardiac muscle; ventricular, papillary and atrial bundles, concentrations of up to 200 uM): ≤ 2 fold
- vasodilator activity (conclusion) (rat thoracic aorta): has vasodilator activity
- relaxation of aortic rings with intact endothelium (rat thoracic aorta; 1 μM noradrenaline precontraction, 100 μM): relaxed noradrenaline-precontracted aortic rings; also recorded: relaxed intact aortic rings in a concentration-dependent manner
- relaxation after addition of methylene blue (rat thoracic aorta; 30 μM methylene blue added after compound 100 μM): fully reversed
- relaxation after pre-treatment with methylene blue (rat thoracic aorta; 30 μM methylene blue added before compound): not able to induce relaxation; also recorded: prevented; also recorded: abolishes
- relaxation after 1-NAME treatment (rat thoracic aorta; 1-NAME 100 μM during 30 min): no difference in the relaxation
- vasorelaxation in presence of ODQ (rat thoracic aorta; ODQ 10 μM, compound 100 μM, preliminary assays): prevented
- relaxation in endothelium-denuded aorta (rat thoracic aorta; endothelium removed): abolished
- relaxation after 1-NAME plus indomethacin (rat thoracic aorta; inhibition of both NOS and cycloxigenase pathways): same level of relaxation observed in the presence of only 1-NAME; also recorded: the same as observed in the presence of 1-NAME alone
- relaxation compared with acetylcholine and IBMX (rat thoracic aorta; intact rings, 1 μM noradrenaline): more slowly; also recorded: less pronounced
- LD50 (LD 50 in dogs): 1500 mg/kg
- LD 50 relative to the effective dose (dogs): > 1000 fold
- blood cell values (blood cells): unaffected; also recorded: no significant change in blood cell values
- hematocrit levels, leucocytes and hemoglobin (blood cells): not significantly changed
- hemoglobin, erythrocytes and blood biochemistry ([2]; male and female mice, long-term treatment): values similar to control
- blood chemistry values ([2]; mice, 2 or 10 mg/kg, controls saline and solvent): no significant change in blood chemistry values
